Results as given in US7687246B2, “Process for producing carotenoids” (DSM IP Assets B. V., priority 2002, dated 2010).

How the values were obtained:
Assay type in all cases: cell-based
[1] = system: Phaffia rhodozyma ATCC96594; assay: Cell growth of Phaffia rhodozyma during astaxanthin production culture (Example 2)
Description: (§1) An aliquot of the culture was withdrawn occasionally during the cultivation, and optical density at 660 nm was measured by using UV-1200 photometer (Shimadzu Corp., Kyoto, Japan) for analysis of the cell growth. Phaffia rhodozyma ATCC96594 (redeposited under the accession No. ATCC 74438 on Apr. 8, 1998 pursuant to the Budapest Treaty) was inoculated into YPD medium as in Example 1 and cultivated by shaking at 20° C. for 2 days. 2.5 ml of the culture were inoculated into fresh YPD medium (50 mL in flask) containing 22 g/L of glucose and 0, 0.5, 1.0, 2.0, and 5.0, μg/mL, respectively, of [3-(3-allyl-biphenyl-4-yloxy)-propyl]-isopropyl-amine, and cultivated by shaking at 20° C. for 7 days. On Day 2 of the cultivation, 50 g/L of glucose was added to the culture. Addition of the inhibitor in the middle of the cultivation was also tested. An aliquot of the culture was withdrawn at Day 4 and Day 7 of the cultivation, and optical density at 660 nm (by using the same method described in Example 1) and astaxanthin content in the culture were measured.

[2] = system: Phaffia rhodozyma ATCC96594; assay: Effect of the squalene synthase inhibitor on the cell growth of Phaffia rhodozyma (Example 1)
Description: Phaffia rhodozyma ATCC96594 (redeposited under the accession No. ATCC 74438 on Apr. 8, 1998 pursuant to the Budapest Treaty) was inoculated into YPD medium (DIFCO, Detroit, U.S.A., 10 mL in tube) and cultivated by shaking at 20° C. for 2 days. 0.5 mL of the culture was inoculated into fresh YPD medium (10 mL in tube) containing 30 g/L of glucose and 0, 0.2, 0.5, 1.0, 2.0, 5.0, 10.0, and 20.0, μg/mL, respectively, of [3-(3-allyl-biphenyl-4-yl-oxy)-propyl]-isopropyl-amine, and cultivated by shaking at 20° C. for 5 days. An aliquot of the culture was withdrawn occasionally during the cultivation, and optical density at 660 nm was measured by using UV-1200 photometer (Shimadzu Corp., Kyoto, Japan) for analysis of the cell growth.

[3] = system: Phaffia rhodozyma ATCC96594; assay: Effect of the squalene synthase inhibitor on astaxanthin production by Phaffia rhodozyma (Example 2); settings: for Astaxanthin content (relative values): relative to Day 7 without inhibitor = 100
Description: as §1, with “Phaffia” for “An aliquot of the culture was withdrawn occasionally during the cultivation, and optical density at 660 nm was measured by using UV-1200 photometer (Shimadzu Corp., Kyoto, Japan) for analysis of the cell growth. Phaffia”, “measured. For analysis of the content of astaxanthin, the withdrawn broth was mixed with a solvent mixture (ethyl alcohol, hexane and ethyl acetate) and carotenoids were extracted from the cells of Phaffia rhodozyma by vigorous shaking with glass beads. After extraction, disrupted cells and glass beads were removed by centrifugation and the resultant supernatant was analyzed by HPLC for the astaxanthin content. The HPLC conditions used were as follows: [table] A reference sample of astaxanthin was obtained from Hoffmann La-Roche (Basel, Switzerland).” for “measured.”

[4] = 5.0 μg/mL inhibitor added at Day 2 of the cultivation, Day 4
[5] = 5.0 μg/mL inhibitor added at Day 2 of the cultivation, Day 7
[6] = 5.0 μg/mL inhibitor from start, Day 4
[7] = 5.0 μg/mL inhibitor from start, Day 7

C=CCc1cc(-c2ccccc2)ccc1OCCCNC(C)C [[3-(3-allyl-biphenyl-4-yloxy)-propyl]-isopropyl-amine]
Cell growth (OD at 660 nm) ([1]; 0.5 μg/mL inhibitor, Day 4): 39.6
Cell growth (OD at 660 nm) ([1]; 0.5 μg/mL inhibitor, Day 7): 39.8
Cell growth (OD at 660 nm) ([1]; 1.0 μg/mL inhibitor, Day 4): 40.3
Cell growth (OD at 660 nm) ([1]; 1.0 μg/mL inhibitor, Day 7): 39.8
Cell growth (OD at 660 nm) ([1]; 2.0 μg/mL inhibitor, Day 4): 38.2
Cell growth (OD at 660 nm) ([1]; 2.0 μg/mL inhibitor, Day 7): 39.3
Cell growth (OD at 660 nm) [1, 4]: 37.4
Cell growth (OD at 660 nm) [1, 5]: 37.9
Cell growth (OD at 660 nm) [1, 6]: 40.2
Cell growth (OD at 660 nm) [1, 7]: 39.5
Cell growth (OD at 660 nm) ([2]; 0.2 μg/mL inhibitor, Day 1): 4.5
Cell growth (OD at 660 nm) ([2]; 0.2 μg/mL inhibitor, Day 2): 16.7
Cell growth (OD at 660 nm) ([2]; 0.2 μg/mL inhibitor, Day 3): 20.1
Cell growth (OD at 660 nm) ([2]; 0.2 μg/mL inhibitor, Day 5): 19.3
Cell growth (OD at 660 nm) ([2]; 0.5 μg/mL inhibitor, Day 1): 4.4
Cell growth (OD at 660 nm) ([2]; 0.5 μg/mL inhibitor, Day 2): 15.6
Cell growth (OD at 660 nm) ([2]; 0.5 μg/mL inhibitor, Day 3): 20.4
Cell growth (OD at 660 nm) ([2]; 0.5 μg/mL inhibitor, Day 5): 19.4
Cell growth (OD at 660 nm) ([2]; 1.0 μg/mL inhibitor, Day 1): 4.0
Cell growth (OD at 660 nm) ([2]; 1.0 μg/mL inhibitor, Day 2): 15.0
Cell growth (OD at 660 nm) ([2]; 1.0 μg/mL inhibitor, Day 3): 20.0
Cell growth (OD at 660 nm) ([2]; 1.0 μg/mL inhibitor, Day 5): 19.5
Cell growth (OD at 660 nm) ([2]; 2.0 μg/mL inhibitor, Day 1): 3.6
Cell growth (OD at 660 nm) ([2]; 2.0 μg/mL inhibitor, Day 2): 15.0
Cell growth (OD at 660 nm) ([2]; 2.0 μg/mL inhibitor, Day 3): 19.5
Cell growth (OD at 660 nm) ([2]; 2.0 μg/mL inhibitor, Day 5): 19.0
Cell growth (OD at 660 nm) ([2]; 5.0 μg/mL inhibitor, Day 1): 2.9
Cell growth (OD at 660 nm) ([2]; 5.0 μg/mL inhibitor, Day 2): 12.3
Cell growth (OD at 660 nm) ([2]; 5.0 μg/mL inhibitor, Day 3): 18.8
Cell growth (OD at 660 nm) ([2]; 5.0 μg/mL inhibitor, Day 5): 18.0
Cell growth (OD at 660 nm) ([2]; 10.0 μg/mL inhibitor, Day 1): 2.0
Cell growth (OD at 660 nm) ([2]; 10.0 μg/mL inhibitor, Day 2): 5.6
Cell growth (OD at 660 nm) ([2]; 10.0 μg/mL inhibitor, Day 3): 14.7
Cell growth (OD at 660 nm) ([2]; 10.0 μg/mL inhibitor, Day 5): 16.9
Cell growth (OD at 660 nm) ([2]; 20.0 μg/mL inhibitor, Day 1): 1.2
Cell growth (OD at 660 nm) ([2]; 20.0 μg/mL inhibitor, Day 2): 1.7
Cell growth (OD at 660 nm) ([2]; 20.0 μg/mL inhibitor, Day 3): 2.7
Cell growth (OD at 660 nm) ([2]; 20.0 μg/mL inhibitor, Day 5): 7.0
inhibition at 5 µg/mL ([2]; Phaffia rhodozyma, ATCC96594, 48 h, 5.0 μg/mL inhibitor, Day 2): ~23%
cell growth (effect in words) ([2]; concentration not higher than 2.0 μg/mL): not affected
Astaxanthin content (relative values) ([3]; 0.5 μg/mL inhibitor, Day 4): 75
Astaxanthin content (relative values) ([3]; 0.5 μg/mL inhibitor, Day 7): 114
Astaxanthin content (relative values) ([3]; 1.0 μg/mL inhibitor, Day 4): 77
Astaxanthin content (relative values) ([3]; 1.0 μg/mL inhibitor, Day 7): 118
Astaxanthin content (relative values) ([3]; 2.0 μg/mL inhibitor, Day 4): 75
Astaxanthin content (relative values) ([3]; 2.0 μg/mL inhibitor, Day 7): 125
Astaxanthin content (relative values) [3, 4]: 84
Astaxanthin content (relative values) [3, 5]: 131
Astaxanthin content (relative values) [3, 6]: 67
Astaxanthin content (relative values) [3, 7]: 129
Astaxanthin production (effect in words) ([3]; all conditions tested (0.5-5.0 μg/mL, from start or added at Day 2)): enhanced
